Test results published in patent publication US4748161A, “Triterpenyl esters of organic acids and hypolipidemic agents composed of them” (Amano Pharmaceutical Co., Ltd., priority 1984, dated 1988).

Tested on: serum lipids and serum lipid hydroperoxide
Assay: Pharmacological test method A for anti-hyperlipidemic activity (serum lipids, 2 weeks feeding)
Type: in vivo, male Wistar strain rats
Details: for AI [(TC - HDL-C)/(HDL-C)] / HDL-C in serum / LPO in serum / PL in serum / TC in serum / TG in serum: 1% in hyperlipidemic diet, 2 weeks; for AI % of diff. / AI Diff. / HDL-C % of diff. / HDL-C Diff. / LPO % of diff. / LPO Diff. / PL % of diff. / PL Diff. / TC % of diff. / TC Diff. / TG % of diff. / TG Diff.: versus control group
How it was run: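 Male Wistar rats (100±lg, 10 per group) fed 10 g/day for 2 weeks of a 1% cholesterol/0.5% cholic acid diet, test groups with 1% each of cycloartenol, 24-methylenecycloartanol and cyclobranol. After 16 h fast, aortic blood serum assayed enzymatically/colorimetrically for TC, HDL-C, TG, PL, LPO.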

| SMILES | AI [(TC - HDL-C)/(HDL-C)] | HDL-C in serum | LPO in serum | PL in serum | TC in serum | TG in serum | AI % of diff. | AI Diff. | HDL-C % of diff. | HDL-C Diff. | LPO % of diff. | LPO Diff. | PL % of diff. | PL Diff. | TC % of diff. | TC Diff. | TG % of diff. | TG Diff. |
| --- | --- | --- | --- | --- | --- | --- | --- | --- | --- | --- | --- | --- | --- | --- | --- | --- | --- | --- |
| CCCCC/C=C\C/C=C\CCCCCCCC(=O)OC1CCC23CC24CCC2(C)C(C(C)CCC(C)=C(C)C)CCC2(C)C4CCC3C1(C)C (centres unmarked) [Example 51, cyclobranyllinolate] | 0.623 | 96.4 mg/dL | 1.69 nmol/mL | 146.0 mg/dL | 156.5 mg/dL | 34.7 mg/dL | -49.0% | -0.599 | +11.5% | +9.9 mg/dl | -24.4% | -0.55 nmol/mL | -15.4% | -26.6 mg/dL | -18.6% | -35.7 mg/dL | -4.3% | -1.6 mg/dL |
| COc1cc(C=CC(=O)OC2CCC34CC35CCC3(C)C(C(C)CCC=C(C)C)CCC3(C)C5CCC4C2(C)C)ccc1O (centres unmarked) [Example 100-1, cycloartenyl-4-hydroxy-3-methoxycinnamate] | 1.204 | 79.1 mg/dL | 1.51 nmol/mL | 150.0 mg/dL | 174.3 mg/dL | 28.3 mg/dL | -20.6% | -0.313 | -3.0% | -2.4 mg/dL | -33.5% | -0.76 nmol/mL | -13.3% | -23.1 mg/dL | -15.0% | -30.8 mg/dL | -17.6% | -6.0 mg/dL |
| CC(C)=CCCC(C)C1CCC2(C)C3CCC4C(C)(C)C(OC(=O)c5ccccc5O)CCC45CC35CCC12C (centres unmarked) [Example 8, cycloartenyl-o-hydroxybenzoate] | 0.759 | 101.1 mg/dL | 2.01 nmol/mL | 148.8 mg/dL | 177.8 mg/dL | 41.3 mg/dL | -54.9% | -0.925 | +25.0% | +20.2 mg/dl | -13.0% | -0.30 nmol/mL | -17.2% | -30.9 mg/dL | -18.1% | -39.3 mg/dL | -3.5% | -1.5 mg/dL |
| CC(C)=C(C)CCC(C)C1CCC2(C)C3CCC4C(C)(C)C(OC(=O)c5ccc(O)cc5)CCC45CC35CCC12C (centres unmarked) [Example 58, cyclobranyl-p-hydroxybenzoate] | 1.318 | 62.0 mg/dL | 1.82 nmol/mL | 121.3 mg/dL | 143.7 mg/dL | 26.8 mg/dL | -25.4% | -0.449 | +3.0% | +1.8 mg/dl | -28.1% | -0.71 nmol/mL | -11.3% | -15.4 mg/dL | -13.7% | -22.9 mg/dL | -1.5% | -0.4 mg/dL |
| C=C(CCC(C)C1CCC2(C)C3CCC4C(C)(C)C(OC(=O)CCCCCCC/C=C\C/C=C\CCCCC)CCC45CC35CCC12C)C(C)C (centres unmarked) [Example 93, 24-Methylenecycloartanyl ester of linoleic acid] | 0.761 | 91.5 mg/dL | 1.70 nmol/mL | 150.2 mg/dL | 161.1 mg/dL | 35.1 mg/dL | -37.7% | -0.461 | +5.8% | +5.0 mg/dl | -24.3% | -0.54 nmol/mL | -13.0% | -22.4 mg/dL | -16.2% | -31.1 mg/dL | -3.3% | -1.2 mg/dL |
| CC(C)=C(C)CCC(C)C1CCC2(C)C3CCC4C(C)(C)C(OC(=O)c5cccnc5)CCC45CC35CCC12C (centres unmarked) [Example 50, cyclobranylnicotinate] | 0.697 | 95.7 mg/dL | 1.87 nmol/mL | 138.8 mg/dL | 162.4 mg/dL | 34.7 mg/dL | -43.0% | -0.525 | 10.6% | +9.2 mg/dl | -16.7% | -0.37 nmol/mL | -19.6% | -33.8 mg/dL | -15.5% | -29.8 mg/dL | -4.3% | -1.6 mg/dL |
| COc1ccccc1C(=O)OC1CCC23CC24CCC2(C)C(C(C)CCC=C(C)C)CCC2(C)C4CCC3C1(C)C (centres unmarked) [Example 13, cycloartenyl-o-methoxybenzoate] | 1.388 | 60.5 mg/dL | 1.94 nmol/mL | 122.8 mg/dL | 144.5 mg/dL | 26.2 mg/dL | -21.4% | -0.379 | +0.5% | +0.3 mg/dl | -23.3% | -0.59 nmol/mL | -10.2% | -13.9 mg/dL | -13.3% | -22.1 mg/dL | -3.7% | -1.0 mg/dL |
| CC(C)=C(C)CCC(C)C1CCC2(C)C3CCC4C(C)(C)C(OC(=O)c5ccc(N)cc5)CCC45CC35CCC12C (centres unmarked) [Example 43, cyclobranyl-p-aminobenzoate] | 0.713 | 91.9 mg/dL | 1.54 nmol/mL | 146.0 mg/dL | 157.4 mg/dL | 33.3 mg/dL | -41.7% | -0.509 | +6.2% | +5.4 mg/dl | -31.3% | -0.70 nmol/mL | -15.4% |  | -18.1% | -34.8 mg/dL | -8.2% | -3.0 mg/dL |
| CC(C)=C(C)CCC(C)C1CCC2(C)C3CCC4C(C)(C)C(OC(=O)c5ccccc5N)CCC45CC35CCC12C (centres unmarked) [Example 47, cyclobranyl-o-aminobenzoate] | 1.811 | 53.4 mg/dL | 2.03 nmol/mL | 140.3 mg/dL | 150.1 mg/dL | 20.4 mg/dL | -1.9% | -0.036 | -9.0% | -5.3 mg/dL | -13.2% | -0.31 nmol/mL | -5.5% | -8.1 mg/dL | -10.2% | -17.0 mg/dL | -17.7% | -4.4 mg/dL |
